Laboratory results as given in ChEMBL document CHEMBL1687706, “Inhibition of human immunodeficiency virus type 1 replication in human cells by Debio-025, a novel cyclophilin binding agent” (Antimicrob Agents Chemother, 2008).
The source made the active and inactive calls. The calls are words filed in the database; no cut-off is given here.

Tests used:
[1] = Cytotoxicity against human HeLa cells; format: cell-based; details: read-out: TC50 (the source's name)
cells = details: Mus musculus, PBMC
[2] = Antiviral activity against HPV-18 infected in human HeLa cells assessed as inhibition of viral replication after 3 days; format: functional, cell-based; details: human papillomavirus 18, HeLa, 72 h; read-out: TC50 (the source's name)
MT4 = assay: Cytotoxicity against human MT4 cells at 0.83 uM by MTT assay; format: cell-based; details: mt4, 0.83 µM
Vaccinia virus = assay: Antiviral activity against Vaccinia virus infected in human embryonic lung cells assessed as reduction in viral yield measured after 3 days; format: functional, organism-based; details: Orthopoxvirus vaccinia, 72 h
Human alphaherpesvirus 2 [3] = assay: Antiviral activity against Herpes simplex virus 2 Lyons infected in human embryonic lung cells assessed as inhibition of viral replication; format: functional, organism-based; details: Human alphaherpesvirus 2, Lyons
[4] = Antiviral activity against HPV-18 infected in human HeLa cells assessed as inhibition of viral replication after 7 days; format: functional; details: human papillomavirus 18, HeLa, 168 h; read-out: TC50 (the source's name)
Human betaherpesvirus 5 [5] = assay: Antiviral activity against Human cytomegalovirus Davis infected in human embryonic lung cells assessed as reduction in viral yield; format: functional, organism-based; details: Human betaherpesvirus 5, Davis
[6] = system: Human immunodeficiency virus 1; assay: Antiviral activity against HIV1 subtype B TEKI infected in human PBMC assessed as inhibition of viral replication by ELISA; format: functional, organism-based; details: Human immunodeficiency virus 1, subtype B TEKI
Rattus norvegicus [7] = assay: Immunosuppressive activity in Sprague-Dawley rat KHL model assessed as percent T-helper cells at 50 mg/kg, po administered once daily for 28 days by flow cytometry; format: functional
Human alphaherpesvirus 2 [8] = assay: Antiviral activity against Herpes simplex virus 2 G infected in human embryonic lung cells assessed as inhibition of viral replication; format: functional, organism-based; details: Human alphaherpesvirus 2, strain G
[9] = Cytotoxicity against human HepAD38 cells; format: cell-based; details: read-out: TC50 (the source's name)
[10] = system: Human immunodeficiency virus 1; assay: microbe, parasite or virus in culture; details: Human immunodeficiency virus 1, 3B, MT4
[11] = system: Human immunodeficiency virus 1; assay: Antiviral activity against HIV1 subtype B WEJO infected in human PBMC assessed as inhibition of viral replication by ELISA; format: functional, organism-based; details: Human immunodeficiency virus 1, subtype B WEJO
Human alphaherpesvirus 1 = assay: Antiviral activity against Herpes simplex virus 1 McIntyre infected in human embryonic lung cells assessed as inhibition of viral replication; format: functional, organism-based; details: Human alphaherpesvirus 1, McIntyre
[12] = system: Human immunodeficiency virus 1; assay: Antiviral activity against LPV, APV, ATV, IDV, NFV, RTV, SQV-resistant HIV-1 52-52 infected in human PBMC assessed as inhibition of viral replication by ELISA; format: functional, organism-based; details: Human immunodeficiency virus 1, 52-52
[13] = system: Human immunodeficiency virus 1; assay: Antiviral activity against HIV1 subtype A 92RW016 infected in human PBMC assessed as inhibition of viral replication by ELISA; format: functional, organism-based; details: Human immunodeficiency virus 1, subtype A 92RW016
[14] = system: Human immunodeficiency virus 1; assay: Antiviral activity against HIV-1 NL4-3 infected in human TZB cells assessed as inhibitory effect on the completion of viral double stranded DNA at 0.5 to 2.5 uM by RT-PCR; format: functional, organism-based
[15] = Cytotoxicity against CRFK; parameters: species or system Felis catus; details: cat, CRFK cells; read-out: TC50 (the source's name)
PBMC = assay: Cytotoxicity against human PBMC at 0.83 uM by MTT assay; format: cell-based
Rattus norvegicus [16] = assay: Immunosuppressive activity in Sprague-Dawley rat […] model assessed as percent T lymphocytes at 10 mg/kg, po administered once daily for 28 days by flow cytometry; format: functional
[17] = Cytotoxicity against MDCK cells; format: cell-based, Canis lupus familiaris; details: dog, read-out: TC50 (the source's name)
[18] = system: Human immunodeficiency virus 1; assay: Antiviral activity against HIV1 subtype EA CMU02 infected in human PBMC assessed as inhibition of viral replication by ELISA; format: functional, organism-based; details: Human immunodeficiency virus 1, subtype EA CMU02
Yellow fever virus = assay: Antiviral activity against Yellow fever virus 17D infected in african green monkey Vero cells assessed as inhibition of viral replication; format: functional, cell-based
[19] = system: Human immunodeficiency virus 1; assay: microbe, parasite or virus in culture; details: Human immunodeficiency virus 1, SF2
[20] = Cytotoxicity against african green monkey Vero cells; format: cell-based; details: chlorocebus sabaeus, read-out: TC50 (the source's name)
[21] = system: Human immunodeficiency virus 1; assay: Antiviral activity against HIV-1 NL4-3 infected in human TZB cells assessed as inhibition of accumulation of early viral transcripts at 0.5 to 2.5 uM by RT-PCR; format: functional, organism-based
Rattus norvegicus [22] = assay: Immunosuppressive activity in Sprague-Dawley rat […] model assessed as IgM level at 10 mg/kg, po administered once daily for 28 days by ELISA; format: functional
[23] = system: Human immunodeficiency virus 1; assay: Antiviral activity against HIV1 subtype B Ba-L infected in human PBMC assessed as inhibition of viral replication by ELISA; format: functional, organism-based; details: Human immunodeficiency virus 1, subtype B Ba-L
Hepatitis B virus = assay: Antiviral activity against HBV infected in human hepAD38 cells assessed as inhibition of viral replication; format: functional, organism-based
[24] = Antiviral activity against HPV-33 infected in CK1 cells assessed as inhibition of viral replication after 3 days; format: functional, cell-based, Human papillomavirus type 33; details: human papillomavirus 33, CK1, 72 h; read-out: TC50 (the source's name)
SARS-CoV = assay: Antiviral activity against SARS coronavirus infected in african green monkey Vero cells assessed as inhibition of viral replication; format: functional, organism-based; details: Severe acute respiratory syndrome-related coronavirus
Human alphaherpesvirus 2 [25] = assay: Antiviral activity against Herpes simplex virus 2 196 infected in human embryonic lung cells assessed as inhibition of viral replication; format: functional, organism-based; details: Human alphaherpesvirus 2, 196, lung
Human alphaherpesvirus 3 = assay: Antiviral activity against VZV OKA infected in human embryonic lung cells assessed as inhibition of; format: functional, organism-based; details: Human alphaherpesvirus 3, OKA
[26] = system: Human immunodeficiency virus 1; assay: Antiviral activity against HIV1 subtype B ROJO infected in human PBMC assessed as inhibition of viral replication by ELISA; format: functional, organism-based; details: Human immunodeficiency virus 1, subtype B ROJO
[27] = system: Human immunodeficiency virus 2; assay: Antiviral activity against HIV-2 isolate CDC310342 infected in human PBMC assessed as inhibition of viral replication; format: functional, organism-based; details: Human immunodeficiency virus 2, isolate CDC310342
Human betaherpesvirus 5 [28] = assay: Antiviral activity against Human cytomegalovirus AD169 infected in human embryonic lung cells assessed as reduction in viral yield; format: functional, organism-based; details: Human betaherpesvirus 5, AD169, lung
Rattus norvegicus [29] = assay: Immunosuppressive activity in Sprague-Dawley rat KHL model assessed as percent cytotoxic T cells at 25 mg/kg, po administered once daily for 28 days by flow cytometry; format: functional, T-cell
[30] = system: Human immunodeficiency virus 1; assay: Antiviral activity against HIV1 subtype C 92BR025 infected in human PBMC assessed as inhibition of viral replication by ELISA; format: functional, organism-based; details: Human immunodeficiency virus 1, subtype C 92BR025
[31] = system: Human immunodeficiency virus 1; assay: Antiviral activity against HIV-1 NL4-3 cells infected in human TZB cells assessed as degradation of cDNA at 0.5 to 2.5 uM after 6 hrs postinfection by RT-PCR; format: functional, organism-based
[32] = system: Human immunodeficiency virus 1; assay: Antiviral activity against HIV1 subtype B SLKA infected in human PBMC assessed as inhibition of viral replication by ELISA; format: functional, organism-based; details: Human immunodeficiency virus 1, subtype B SLKA

## C/C=C/C[C@@H](C)[C@@H](O)[C@H]1C(=O)N[C@@H](CC)C(=O)N(C)[C@H](C)C(=O)N(CC)[C@@H](C(C)C)C(=O)N[C@@H](C(C)C)C(=O)N(C)[C@@H](CC(C)C)C(=O)N[C@@H](C)C(=O)N[C@H](C)C(=O)N(C)[C@@H](CC(C)C)C(=O)N(C)[C@@H](CC(C)C)C(=O)N(C)[C@@H](C(C)C)C(=O)N1C [ALISPORIVIR]
[1]
  CC50: 8.2 µM
cells
  IC50: 820 nM
[2]
  CC50: 6.5 µM
MT4
  Activity: Non-toxic
Vaccinia virus
  IC50: > 25 µM
Human alphaherpesvirus 2 [3]
  IC50: > 25 µM
[4]
  CC50: 3.3 µM
Human betaherpesvirus 5 [5]
  IC50: 6.1 µM
[6]
  IC50: 4.41 µM
Rattus norvegicus [7]
  Activity: 32.8%
Human alphaherpesvirus 2 [8]
  IC50: > 25 µM
[9]
  CC50: 16.4 µM
[10]
  IC50: 99 nM
[11]
  IC50: 15 nM
Human alphaherpesvirus 1
  IC50: > 25 µM
[12]
  IC50: 3.12 µM
[13]
  IC50: 8 nM
[14]
  inhibition: Active
[15]
  CC50: 10.6 µM
PBMC
  Activity: Non-toxic
Rattus norvegicus [16]
  Activity: 52.4%
[17]
  CC50: 9.9 µM
[18]
  IC50: 5.66 µM
Yellow fever virus
  IC50: > 16.6 µM
[19]
  IC50: 63 nM
[20]
  CC50: 16.6 µM
[21]
  inhibition: inactive
Rattus norvegicus [22]
  deltaA: 0.78
[23]
  IC50: 3.53 µM
Hepatitis B virus
  IC50: 4.1 µM
[24]
  CC50: 400 nM
SARS-CoV
  IC50: 7.7 µM
Human alphaherpesvirus 2 [25]
  IC50: > 25 µM
Human alphaherpesvirus 3
  IC50: 2500 nM
[26]
  IC50: 24 nM
[27]
  IC50: 58 nM
Human betaherpesvirus 5 [28]
  IC50: 8.9 µM
Rattus norvegicus [29]
  Activity: 18%
[30]
  IC50: 15 nM
[31]
  Activity: Active
[32]
  IC50: 25 nM
